Results: the supplement of paper PMC10307832

Experiments:
Assay in all cases: relative viability (nuclei count vs DMSO), 5 days (fraction); higher = more cells survive
NCI-H2342 = system: NCI-H2342
How it was run: (§1)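 Each reported value is a median over duplicate plates. It expresses relative viability: treated-well nuclei count divided by vehicle-well nuclei count. Lung cancer cell lines in 1536-well plates were dosed by pin tool a day after seeding, alone with one drug or with a fixed anchor-drug dose plus five library-drug doses (not always all listed) in √10 steps, and nuclei were counted after 5 days.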

NCI-H650 = system: NCI-H650
How it was run: as §1

HCC-366 = system: HCC-366
How it was run: as §1

NCI-H2347 = system: NCI-H2347
How it was run: as §1

SW 1573 = system: SW 1573
How it was run: as §1

NCI-H2228 = system: NCI-H2228
How it was run: as §1

A-427 = system: A-427
How it was run: as §1

HCC-827 = system: HCC-827
How it was run: as §1

NCI-H1993 = system: NCI-H1993
How it was run: as §1

LC-2-ad = system: LC-2-ad
How it was run: as §1

NCI-H23 = system: NCI-H23
How it was run: as §1

NCI-H1755 = system: NCI-H1755
How it was run: as §1

SK-LU-1 = system: SK-LU-1
How it was run: as §1

NCI-H1975 = system: NCI-H1975
How it was run: as §1

RERF-LC-KJ = system: RERF-LC-KJ
How it was run: as §1

SK-MES-1 = system: SK-MES-1
How it was run: as §1

LCLC-103H = system: LCLC-103H
How it was run: as §1

NCI-H1355 = system: NCI-H1355
How it was run: as §1

UMC-11 = system: UMC-11
How it was run: as §1

NCI-H2170 = system: NCI-H2170
How it was run: as §1

NCI-H1915 = system: NCI-H1915
How it was run: as §1

NCI-H1734 = system: NCI-H1734
How it was run: as §1

NCI-H1792 = system: NCI-H1792
How it was run: as §1

In the case of Cc1cn(-c2cc(NC(=O)c3ccc(C)c(Nc4nccc(-c5cccnc5)n4)c3)cc(C(F)(F)F)c2)cn1 [Nilotinib] + CC(=O)Nc1cccc(-n2c(=O)n(C3CC3)c(=O)c3c(Nc4ccc(I)cc4F)n(C)c(=O)c(C)c32)c1 [Trametinib] (partner 0.02 µM), the relative viability (NCI-H2342; first compound 0.001 µM) is reported as 0.786, the relative viability (NCI-H2342; first compound 0.003162 µM) is reported as 0.76 and the relative viability (NCI-H2342; first compound 0.01 µM) is reported as 0.798. The relative viability (NCI-H2342; first compound 0.03162 µM) was 0.711, the relative viability (NCI-H2342; first compound 0.1 µM) was 0.842 and the relative viability (NCI-H650; first compound 0.001 µM) was 0.952. The relative viability (NCI-H650; first compound 0.003162 µM) was 0.915, the relative viability (NCI-H650; first compound 0.01 µM) was 1.03 and the relative viability (NCI-H650; first compound 0.03162 µM) was 0.974. The relative viability (NCI-H650; first compound 0.1 µM) was 0.9, the relative viability (HCC-366; first compound 0.001 µM) was 0.35 and the relative viability (HCC-366; first compound 0.003162 µM) was 0.361. It also gave a relative viability (HCC-366; first compound 0.01 µM) of 0.327, a relative viability (HCC-366; first compound 0.03162 µM) of 0.243 and a relative viability (HCC-366; first compound 0.1 µM) of 0.145. For the same compound, the relative viability (NCI-H2347; first compound 0.001 µM) was 0.267, the relative viability (NCI-H2347; first compound 0.003162 µM) was 0.23 and the relative viability (NCI-H2347; first compound 0.01 µM) was 0.234. The relative viability (NCI-H2347; first compound 0.03162 µM) was 0.268, the relative viability (NCI-H2347; first compound 0.1 µM) was 0.271 and the relative viability (SW 1573; first compound 0.001 µM) was 0.487. It also gave a relative viability (SW 1573; first compound 0.003162 µM) of 0.72, a relative viability (SW 1573; first compound 0.01 µM) of 0.456 and a relative viability (SW 1573; first compound 0.1 µM) of 0.314. For the same compound, the relative viability (NCI-H2228; first compound 0.001 µM) was 0.437, the relative viability (NCI-H2228; first compound 0.003162 µM) was 0.552 and the relative viability (NCI-H2228; first compound 0.01 µM) was 0.576. The relative viability (NCI-H2228; first compound 0.03162 µM) was 0.255, the relative viability (NCI-H2228; first compound 0.1 µM) was 0.295 and the relative viability (A-427; first compound 0.001 µM) was 0.812. The relative viability (A-427; first compound 0.003162 µM) was 0.567, the relative viability (A-427; first compound 0.01 µM) was 0.73 and the relative viability (A-427; first compound 0.03162 µM) was 0.522. The relative viability (A-427; first compound 0.1 µM) was 0.556, the relative viability (HCC-827; first compound 0.001 µM) was 0.593 and the relative viability (HCC-827; first compound 0.003162 µM) was 0.523. It also gave a relative viability (HCC-827; first compound 0.03162 µM) of 0.542, a relative viability (HCC-827; first compound 0.1 µM) of 0.469 and a relative viability (NCI-H1993; first compound 0.001 µM) of 0.47. For the same compound, the relative viability (NCI-H1993; first compound 0.003162 µM) was 0.522, the relative viability (NCI-H1993; first compound 0.01 µM) was 0.477 and the relative viability (NCI-H1993; first compound 0.03162 µM) was 0.507. It also gave a relative viability (NCI-H1993; first compound 0.1 µM) of 0.494, a relative viability (LC-2-ad; first compound 0.001 µM) of 0.876 and a relative viability (LC-2-ad; first compound 0.003162 µM) of 1.09. For the same compound, the relative viability (LC-2-ad; first compound 0.01 µM) was 0.967, the relative viability (LC-2-ad; first compound 0.03162 µM) was 0.596 and the relative viability (LC-2-ad; first compound 0.1 µM) was 0.517. The relative viability (NCI-H23; first compound 0.001 µM) was 0.319, the relative viability (NCI-H23; first compound 0.01 µM) was 0.292 and the relative viability (NCI-H23; first compound 0.03162 µM) was 0.202. For the same compound, the relative viability (NCI-H23; first compound 0.1 µM) was 0.197, the relative viability (NCI-H1755; first compound 0.001 µM) was 0.745 and the relative viability (NCI-H1755; first compound 0.003162 µM) was 0.806. For the same compound, the relative viability (NCI-H1755; first compound 0.01 µM) was 0.699, the relative viability (NCI-H1755; first compound 0.03162 µM) was 0.64 and the relative viability (NCI-H1755; first compound 0.1 µM) was 0.556. The relative viability (SK-LU-1; first compound 0.001 µM) was 0.436, the relative viability (SK-LU-1; first compound 0.003162 µM) was 0.475 and the relative viability (SK-LU-1; first compound 0.01 µM) was 0.371. For the same compound, the relative viability (SK-LU-1; first compound 0.03162 µM) was 0.361, the relative viability (SK-LU-1; first compound 0.1 µM) was 0.385 and the relative viability (NCI-H1975; first compound 0.001 µM) was 0.338. For the same compound, the relative viability (NCI-H1975; first compound 0.003162 µM) was 0.338, the relative viability (NCI-H1975; first compound 0.01 µM) was 0.308 and the relative viability (NCI-H1975; first compound 0.03162 µM) was 0.241. For the same compound, the relative viability (NCI-H1975; first compound 0.1 µM) was 0.234, the relative viability (RERF-LC-KJ; first compound 0.001 µM) was 0.79 and the relative viability (RERF-LC-KJ; first compound 0.003162 µM) was 0.985. It also gave a relative viability (RERF-LC-KJ; first compound 0.01 µM) of 0.985, a relative viability (RERF-LC-KJ; first compound 0.03162 µM) of 0.764 and a relative viability (RERF-LC-KJ; first compound 0.1 µM) of 0.811. For the same compound, the relative viability (SK-MES-1; first compound 0.001 µM) was 0.581, the relative viability (SK-MES-1; first compound 0.003162 µM) was 0.482 and the relative viability (SK-MES-1; first compound 0.01 µM) was 0.492. The relative viability (SK-MES-1; first compound 0.03162 µM) was 0.437, the relative viability (SK-MES-1; first compound 0.1 µM) was 0.339 and the relative viability (LCLC-103H; first compound 0.001 µM) was 0.588. For the same compound, the relative viability (LCLC-103H; first compound 0.003162 µM) was 0.773, the relative viability (LCLC-103H; first compound 0.01 µM) was 0.75 and the relative viability (LCLC-103H; first compound 0.03162 µM) was 0.579. The relative viability (LCLC-103H; first compound 0.1 µM) was 0.728, the relative viability (NCI-H1355; first compound 0.001 µM) was 0.378 and the relative viability (NCI-H1355; first compound 0.003162 µM) was 0.469. It also gave a relative viability (NCI-H1355; first compound 0.01 µM) of 0.44, a relative viability (NCI-H1355; first compound 0.03162 µM) of 0.356 and a relative viability (NCI-H1355; first compound 0.1 µM) of 0.307. It also gave a relative viability (UMC-11; first compound 0.001 µM) of 0.635, a relative viability (UMC-11; first compound 0.003162 µM) of 0.801 and a relative viability (UMC-11; first compound 0.01 µM) of 0.742. The relative viability (UMC-11; first compound 0.03162 µM) was 0.446, the relative viability (UMC-11; first compound 0.1 µM) was 0.317 and the relative viability (NCI-H2170; first compound 0.001 µM) was 0.816. It also gave a relative viability (NCI-H2170; first compound 0.003162 µM) of 1.23, a relative viability (NCI-H2170; first compound 0.01 µM) of 1.1 and a relative viability (NCI-H2170; first compound 0.03162 µM) of 0.842. For the same compound, the relative viability (NCI-H2170; first compound 0.1 µM) was 0.868, the relative viability (NCI-H1915; first compound 0.001 µM) was 0.237 and the relative viability (NCI-H1915; first compound 0.003162 µM) was 0.283. The relative viability (NCI-H1915; first compound 0.01 µM) was 0.224, the relative viability (NCI-H1915; first compound 0.03162 µM) was 0.151 and the relative viability (NCI-H1915; first compound 0.1 µM) was 0.164. It also gave a relative viability (NCI-H1734; first compound 0.001 µM) of 0.57, a relative viability (NCI-H1734; first compound 0.003162 µM) of 0.664 and a relative viability (NCI-H1734; first compound 0.01 µM) of 0.547. The relative viability (NCI-H1734; first compound 0.03162 µM) was 0.345, the relative viability (NCI-H1734; first compound 0.1 µM) was 0.349 and the relative viability (NCI-H1792; first compound 0.001 µM) was 0.365. The relative viability (NCI-H1792; first compound 0.003162 µM) was 0.491, the relative viability (NCI-H1792; first compound 0.01 µM) was 0.446 and the relative viability (NCI-H1792; first compound 0.03162 µM) was 0.077. It also gave a relative viability (NCI-H1792; first compound 0.1 µM) of 0.162.
